Six compounds from patent US6458590B1, “Methods and compositions for treatment of restenosis” (The United States of America, as represented by the …, priority 1997, dated 2002) can be followed below.

Data set [1] concerns OPN. As to the kind of experiment: OPN production in PMA-stimulated CASMCs (immunoprecipitation, Western blotting). The data set is classed as cell-based, human. The settings on record: 250 nM PMA, 37° C., 24 h. How it is done: An in vitro assay was used in order to determine whether an increase in OPN gene expression is detectable. Since phorbol myristate acetate (PMA) is known to induce OPN gene expression, CASMCs were stimulated with PMA, and OPN production was detected by immunoprecipitation of cell lysates followed by Western blotting.
CASMCs were incubated with Phorbol 12-myristate 13-acetate (PMA) (250 nM) at 37° C. for 24 h. The cells were immunoprecipitated using a kit according to manufacturer's (Boehringer Mannheim) instructions. Briefly, the cells were lysed with lysis buffer, centrifuged and the supernatant incubated with rabbit OPN-antibody for 1 h then with protein A-agarose at 4° C. overnight. Bound complexes were pelleted by centrifugation, washed and electrophoresed. Western blot analysis was done as described, supra.
Background: In western blotting, separated proteins are transferred to a membrane and probed.

A further data set deals with CASMCs. As to the kind of experiment: CASMC proliferation assay ([3H]thymidine). The format is cell-based, human. How it is done:
CASMCs were cultured as described above and the cells were starved in serum free media for 48 h. The proliferation assays were performed as described previously (Monfardini et al., (1995) J. Biol. Chem. 270:6628-6638). Briefly, the cells were incubated in the absence or presence of PDGF-AB (100 ng/ml) (Upstate Biotechnology, Lake Placid, N.Y.) and increasing concentrations of OPN (1.0-6.0 μg/ml) at 37° C. for 24 h. In separate experiments, cells were pre-treated with either mouse anti human αvβ3-antibody (5 μg/ml), preimmune IgG or GRGDS peptide (10 nM) followed by OPN (3.0 μg/ml). After 4 h, [3H]thymidine (1 μCi/ml) was added and the cells were maintained in culture for an additional 24 h under the same culture conditions as described previously. After removing the supernatants, the cells were washed with basal medium and lysed in 50% TCA. The acid precipitable cell-bound radioactivity was measured using a scintillation counter (Beckman).

For a further data set, the system named is human CASMC. Put plainly: CASMC migration assay (Transwell). The data set is classed as cell-based. The conditions noted are these: OPN 0.68 or 1.36 μg/ml as chemoattractant, 24 h. How it is done: Migration of CASMC was performed using Transwell cell culture chambers with an […] pore size polycarbonate membrane (Costar) as described previously (Yue et al., (1994) Exptl. Cell Res. 214:459-464). Briefly, sub-confluent human CASMC were trypsinized, centrifuged and resuspended in basal medium (SmBM) supplemented with 0.2% BSA. This was followed by the addition of 0.25 ml of cell suspension (5×10^4 cells) to the upper compartnent of the chamber. The lower compartment contained 0.5 ml of basal medium supplemented with 0.2% BSA together with 0.68 μg/ml OPN, 1.36 μg/ml OPN, or buffer alone. After incubation at 37° C. for 24 h., the non-migrated cells on the upper surface of the filters were scraped and washed. The migrated cells were fixed in methanol, stained with Giemsa stain, counted under an inverted microscope and photomicrographed (120×) using a Zeiss photomicroscope (Axiovert 405 M). In separate experiments, cells in the upper compartment were also treated with monoclonal mouse anti-human αvβ3-antibody (Chemicon) (10 μg/ml) before being assayed for migration in order to ascertain whether this OPN-stimulated migration is mediated via αvβ3. Preimmune IgG treatment served as a non-specific control.

The next data set relates to CASMC. Put plainly: ECM-invasion assay (matrigel-coated invasion chamber). The data set is classed as cell-based, human. The settings on record: OPN 0.5-2.0 μg/ml, 24 h. On the procedure: The ECM-invasion assay was performed using a commercially available 24-well matrigel-coated invasion chamber (Collaborative Research) as described previously (Kundu et al., (1996) Proc. Natl. Acad. Sci. (USA) 93:2915-2919). Briefly, the confluent CASMC were trypsinized, centrifuged, and resuspended in basal medium supplemented with 0.1% BSA. The lower compartment of the invasion chamber was filled with fibroblast-conditioned medium (FCM) which served as a chemoattractant. The invasion assays were initiated by inoculating the upper chamber with cells (1×10^5/well) which were either untreated or treated with varying concentrations of OPN (0.5-2.0 μg/ml). After incubating at 37° C. for 24 h, the cells in the upper chamber were discarded, the matrigel was scraped clear and the cells which had invaded the matrigel and migrated to the lower surface of the filter, were fixed, stained, counted and photomicrographed (120×) as described above. The cells were also pre-treated with mouse anti-human αvβ3 antibody (Chemicon) (10 μg/ml) as described above to determine if the OPN-induced invasion was mediated via αvβ3. Preimmune IgG was used as a non-specific control.

The test system of data set [2] is human coronary artery smooth muscle cells (CASMCs). Put plainly: Proliferation of CASMCs after lipofection with OPN oligonucleotides ([3H]-thymidine). The format is cell-based. The conditions noted are these: oligonucleotide 1.5 μg/200 μl with LIPOFECTIN 5 μg/200 μl. How it is done: (§1) CASMCs (Clonetics) were transfected with a “LIPOFECTIN”-oligonucleotide complex according to the manufacturer's (GIBCO-BRL Life Technologies, Inc. Gaithersburg, Md.) specifications. Briefly, 5 μg of “LIPOFECTIN” was mixed with either 1 or 2 μg of antisense oligonucleotide in 200 μl of serum free medium (SFM) (also called basal medium) and incubated at room temperature for 15 min. Cells (1×10^5 cells/well, 12-well plate) during log phase of growth were washed with SFM and 1 ml of SFM containing Lipofectin with different amounts of antisense S-oligonucleotides was added to each well and mixed by gentle agitation. The cells were incubated further with the same medium at 37° C. for 12 h. Additional control cells which received either SFM, or SFM which contained “LIPOFECTIN” alone, were also included. […] The SFM medium containing “LIPOFECTIN”-oligonucleotide complex was removed, and the cells incubated for an additional 48 h in regular medium. At the end of this incubation period, the cells were ready for the determination of a dose response on OPN expression as measured by Western blotting.
The effect of antisense ASHOPN-P1 on the proliferation of human coronary artery smooth muscle cells (CASMCs) was determined as described supra. […] The acid precipitable radioactivity was measured using a scintillation beta counter (Beckman).

Data set [3] relates to OPN. As to the kind of experiment: OPN expression in lipofected CASMCs (immunoprecipitation, Western blot). The format is cell-based, human. On the procedure: as §1
The effect of antisense OPN sequences on OPN expression was determined by Western blot analysis as described above. […]

`CCCCCCCCCCCCCC(=O)O[C@@H]1[C@@H](C)[C@@]2(O)[C@@H](C=C(CO)C[C@]3(O)C(=O)C(C)=C[C@@H]23)[C@@H]2C(C)(C)[C@]12OC(C)=O` [PMA, Phorbol 12-myristate 13-acetate]: the “level of OPN protein in stimulated cells versus unstimulated cells” value with OPN [1] is “markedly higher”.

As for osteopontin [OPN], the CASMC proliferation entry in the data set with CASMCs (OPN 1.0-6.0 μg/ml) was “stimulated their proliferation in a dose-dependent manner”. For the same compound, the “CASMC proliferation, OPN in conjunction with PDGF-AB” value in the data set on CASMCs (with 100 ng/ml of PDGF-AB) is “dramatic dose-dependent effect”. In the data set with CASMCs (without PDGF-AB), the “CASMC proliferation, OPN alone” value is listed as “modest proliferative response”. Further, in the data set with human CASMC, the “rate of migration of CASMCs” value is recorded as “enhanced with increasing concentrations”. The “invasiveness of CASMCs on MATRIGEL” value in the data set with CASMC was “enhanced their invasiveness”.

“platelet-derived growth factor-AB [PDGF-AB, reference compound]”: in the data set on CASMCs (PDGF-AB 100 ng/ml, without OPN), the “CASMC proliferation, PDGF-AB alone” value is “virtually no effect”.

“Gly-Arg-Gly-Asp-Ser (GRGDS) [reference compound]”: in the data set on CASMCs (pre-treatment: αvβ3-antibody 5 μg/ml or GRGDS 10 nM, then OPN 3.0 μg/ml), the “effect on OPN-induced proliferation” value was “drastically inhibited”.

Regarding “5′-AATCACTGCAATTCTCATGG-3′ (all phosphorothioate, sugars by position and methylation of C not given here; listed as Homo sapiens) [ASHOPN-P1]”, the “inhibition of cell proliferation as compared to cells treated with LIPOFECTIN alone” value in data set [2] amounted to 82%. In the data set with OPN [3] (1 or 2 μg S-oligonucleotide with LIPOFECTIN, versus LIPOFECTIN-treated or sense-treated cells), the “expression of OPN by CASMCs” value is “capable of inhibiting expression of OPN”. For the same compound, the “specificity of the antisense effect” value in the data set with OPN [3] (compared with OPN sense-treated cells) is recorded as “specific”.

For the compound “5′CCATGAGAATTGCAGTGATT-3′ (all phosphorothioate, sugars by position and methylation of C not given here; listed as Homo sapiens) [SHOPN, reference compound]”, the “inhibition of cell proliferation as compared to cells treated with LIPOFECTIN alone” value in data set [2] is recorded as “about 50%”.
